Columns and labels:
Type in all cases: cell-based, Chinese hamster
[1] = test system: CHO cell line producing mAb1; assay: Glycosylation profile (UPLC-MS of released glycans) of mAb1 from fed-batch; conditions: for reduction of the fucosylation compared to the control: mAb1, same concentration of both additives
Method: (§1) Glycosylation patterns were analyzed by ultra-performance liquid chromatography coupled to a mass spectrometer (UPLC-MS). The purified antibody was denaturated and the glycans were released from the antibody by digestion with peptide N-glycosidase F (PNGase F) followed by labeling the glycans with the GlycoWorks™ RapiFluor-MS™ N-Glycan Kit according to the manufacturer protocol. For the analysis, an UPLC glycan column (2.1×150 mm) that separated the glycans according to their […] was used. The chromatography was performed at 45° C. using 50 mM ammonium formate (A), pH 4.4 solution and an acetonitrile (B) gradient. In detail, at the beginning the ratio of A:B was 20:80 (0 min) and changed to 27:73 at 3 min and 37:63 at 35 min at a flow rate of 0.5 ml/min. From 36.5 min to 39.5 min only A was used as mobile phase and the flow rate was reduced to 0.2 ml/min. Subsequently, the ratio was changed to 20% A:80% B and the flowrate was increased to 0.5 ml/min at 43.1 min until the end of the process at 55 min. The detection was performed by a fluorescence detector with an excitation wavelength of 265 nm and an emission wavelength of 425 nm. The identification of the glycan structures was performed by MS using positive electro spray ionization (ESI), which was calibrated every 30 s with a standard.
(§2) Four different clones of Chinese hamster ovary (CHO) cells expressing three different monoclonal antibodies (mAb) and a fusion protein were tested. Cells were cultivated in spin tubes between 14 and 20 days at 37° C., 5% CO2, and 80% humidity. As starting cell density, 3×10^5 cells/mL in 30 mL Cellvento®4CHO media (pH 7.0±0.1) was used for clone 1 and 2 producing mAb1 and mAb2, respectively (Cellvento® Platform). Cells were cultivated at an agitation of 320 rpm and were fed on day 3, 5, 10, 12 and 14 with 3% volume of Cellvento® 4Feed (v/v) and on day 7 with 6% (v/v) of the feed. Clone 3 and 4 producing mAb3 and a fusion protein were inoculated at the same cell density in 30 mL Ex-Cell® Advanced Media (pH 7.2±0.1) while agitation was set to 230 rpm (Ex-Cell® Platform). Clones 3 and 4 were fed with […] Advanced Feed (v/v) on day 3, 5, 7, 10, 12, 14 and 17. […] The pH of all Cellvento® feeds was adjusted to 7.0±0.1 and Ex-Cell® Feeds were adjusted to 8.5±0.1. The glucose level was maintained above 4 g/L by adding a specific amount of a 400 g/L glucose stock solution on demand to up to 6 g/L during the week and up to 13 g/L over the weekend. Glucose and titer were detected in the supernatant with the bioprocess analyzer CEDEX Bio HT (Roche, Mannheim, Germany).
(§3) To investigate the glycosylation profile during the fed-batch experiment samples were centrifugated and antibodies and Fc-fusion proteins were purified from the cell culture supernatant using protein A PhyTips® (PhyNexus Inc, San Jose, Calif.). Glycosylation patterns were analyzed as described by ultra-performance liquid chromatography coupled to a mass spectrometer (UPLC-MS) using the GlycoWorks™ RapiFluor-MS™ N-Glycan Kit.
(§4) Glycosylation profile on day 12 was visualized since harvest of recombinant produced proteins on day 12 is common. Quantification of the glycans was obtained using the relative peak area of the fluorescence signal. Almost all peaks were assigned to glycan structures according to their mass. Unknown glycan structures and signals without mass detection were summarized as unknown species (not shown). Four different clones of Chinese hamster ovary (CHO) cells expressing three different monoclonal antibodies (mAb) and a fusion protein were tested. […] The known positive control achieved a […] level on day 12 by increasing the afucosylation to 78%. The same amount of afucosylation compared to the known fucose-analogue acetylated 2F-Fucose was only achieved by clone 3 expressing mAb3 leading to about […] on day 12 (FIG. 8 C). […]

[2] = test system: CHO cell line producing mAb2; assay: Glycosylation profile (UPLC-MS of released glycans) of mAb2 from fed-batch; conditions: mAb2, 400 μM additive, day 12
Method: as §1, §2, §3
Glycosylation profile on day 12 was visualized since harvest of recombinant produced proteins on day 12 is common. Quantification of the glycans was obtained using the relative peak area of the fluorescence signal. Almost all peaks were assigned to glycan structures according to their mass. Unknown glycan structures and signals without mass detection were summarized as unknown species (not shown). […]

[3] = test system: CHO cell line producing mAb3; assay: Glycosylation profile (UPLC-MS of released glycans) of mAb3 from fed-batch
Method: as §1, §2, §3, §4

[4] = mAb3, 400 μM additive, day 12, listed as ThioFuc
[5] = mAb3, 800 μM additive, day 12, listed as ThioFuc

C[C@@H]1SC(O)[C@@H](O)[C@H](O)[C@@H]1O (some centres unmarked)
core-fucosylated glycans ([1]; mAb1, 400 μM additive, day 12): about 26%
reduction of the fucosylation compared to the control ([1]; day 7): 64%
reduction of the fucosylation compared to the control ([1]; day 10): 68%
reduction of the fucosylation compared to the control ([1]; day 12): 67%
afucosylation [2]: 60%
core-fucosylation [2]: 8%
% Afucosylated ([3]; mAb3, 50 μM additive, day 5): 17.7%
% Fucosylated ([3]; mAb3, 50 μM additive, day 5): 81.4%
% fucose analogue (incorporated) ([3]; mAb3, 50 μM additive, day 5): 0.38%
% Afucosylated ([3]; mAb3, 50 μM additive, day 12): 16.0%
% Fucosylated ([3]; mAb3, 50 μM additive, day 12): 72.5%
% fucose analogue (incorporated) ([3]; mAb3, 50 μM additive, day 12): ~11%
% fucose analogue (incorporated) ([3]; mAb3, 50 μM additive, day 12, listed as ThioFuc): 10.7%
% Afucosylated ([3]; mAb3, 50 μM additive, day 14): 16.1%
% Fucosylated ([3]; mAb3, 50 μM additive, day 14): 69.9%
% fucose analogue (incorporated) ([3]; mAb3, 50 μM additive, day 14): 13.6%
% Afucosylated ([3]; mAb3, 200 μM additive, day 5): 22.1%
% Fucosylated ([3]; mAb3, 200 μM additive, day 5): 62.9%
% fucose analogue (incorporated) ([3]; mAb3, 200 μM additive, day 5): 14.5%
% Afucosylated ([3]; mAb3, 200 μM additive, day 12): 30.1%
% Fucosylated ([3]; mAb3, 200 μM additive, day 12): 33.3%
% fucose analogue (incorporated) ([3]; mAb3, 200 μM additive, day 12): ~36%
% fucose analogue (incorporated) ([3]; mAb3, 200 μM additive, day 12, listed as ThioFuc): 35.9%
% Afucosylated ([3]; mAb3, 200 μM additive, day 14): 32.1%
% Fucosylated ([3]; mAb3, 200 μM additive, day 14): 28.6%
% fucose analogue (incorporated) ([3]; mAb3, 200 μM additive, day 14): 39.1%
% Afucosylated ([3]; mAb3, 400 μM additive, day 5): 28.7%
% Fucosylated ([3]; mAb3, 400 μM additive, day 5): about 48%
% fucose analogue (incorporated) ([3]; mAb3, 400 μM additive, day 5): 26.5%
% Fucosylated ([3]; mAb3, 400 μM additive, day 5, listed as ThioFuc): 46.4%
fucosylation level ([3]; mAb3, 400 μM additive, day 7): about 34%
fucosylation level ([3]; mAb3, 400 μM additive, day 10): ~25%
% Fucosylated ([3]; mAb3, 400 μM additive, day 12): 21%
% Afucosylated [3, 4]: 34.8%
% Fucosylated [3, 4]: 20.9%
% fucose analogue (incorporated) [3, 4]: 44.1%
% Afucosylated ([3]; mAb3, 400 μM additive, day 14): 36.0%
% Fucosylated ([3]; mAb3, 400 μM additive, day 14): ~18%
% fucose analogue (incorporated) ([3]; mAb3, 400 μM additive, day 14): 46.2%
% Fucosylated ([3]; mAb3, 400 μM additive, day 14, listed as ThioFuc): 17.7%
% Afucosylated ([3]; mAb3, 800 μM additive, day 5): 32.3%
% Fucosylated ([3]; mAb3, 800 μM additive, day 5): 40.4%
% fucose analogue (incorporated) ([3]; mAb3, 800 μM additive, day 5): 31.7%
% Afucosylated ([3]; mAb3, 800 μM additive, day 12): about 36%
% Fucosylated ([3]; mAb3, 800 μM additive, day 12): about 15%
% fucose analogue (incorporated) ([3]; mAb3, 800 μM additive, day 12): about 48%
reduction of fucosylation compared to the control ([3]; mAb3, 800 μM additive, day 12): about 75%
% Afucosylated [3, 5]: 36.4%
% Fucosylated [3, 5]: 15.4%
% fucose analogue (incorporated) [3, 5]: 47.8%
% Afucosylated ([3]; mAb3, 800 μM additive, day 14): 38.0%
% Fucosylated ([3]; mAb3, 800 μM additive, day 14): 12.5%
% fucose analogue (incorporated) ([3]; mAb3, 800 μM additive, day 14): 49.3%
